Assay results published in PubChem BioAssay (NCI).
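Assay format: 96-well plates, 48-hour exposure. Here, GI50 denotes the concentration required for 50% inhibition of growth. TGI is the concentration that stops growth completely.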

Assays:
Test in all cases: growth of human tumour cells (NCI), 48 h
MDA-MB-231 breast = test system: MDA-MB-231 breast
PC-3 prostate = test system: PC-3 prostate
MOLT-4 leukemia = test system: MOLT-4 leukemia
SR leukemia = test system: SR leukemia
IGROV1 ovarian = test system: IGROV1 ovarian
A498 renal = test system: A498 renal
OVCAR-4 ovarian = test system: OVCAR-4 ovarian
SK-MEL-2 melanoma = test system: SK-MEL-2 melanoma
HOP-62 NSCLC = test system: HOP-62 NSCLC
786-0 renal = test system: 786-0 renal
SF-295 CNS = test system: SF-295 CNS

Structure (SMILES) | TGI (MDA-MB-231 breast) | TGI (PC-3 prostate) | TGI (MOLT-4 leukemia) | TGI (SR leukemia) | TGI (IGROV1 ovarian) | TGI (A498 renal) | TGI (OVCAR-4 ovarian) | TGI (SK-MEL-2 melanoma) | TGI (HOP-62 NSCLC) | TGI (786-0 renal) | TGI (SF-295 CNS) | GI50 (MDA-MB-231 breast) | GI50 (PC-3 prostate) | GI50 (SR leukemia) | GI50 (IGROV1 ovarian) | GI50 (A498 renal) | GI50 (OVCAR-4 ovarian) | GI50 (SK-MEL-2 melanoma) | GI50 (HOP-62 NSCLC) | GI50 (SF-295 CNS)
C[N+]12CCCCC1C(CN1C(=O)Cc3c4ccccc4c(c4ccccc34)CC1=O)CCC2 (stereo unspecified) | > 100 µM | > 100 µM | > 100 µM | > 100 µM | > 100 µM | > 100 µM | > 100 µM | > 100 µM | > 100 µM | > 100 µM | > 100 µM | – | – | – | – | – | – | – | – | –
CCOC(=O)NC(Nc1ccc([N+](=O)[O-])cc1)(C(F)(F)F)C(F)(F)F | > 100 µM | > 100 µM | > 100 µM | > 100 µM | > 100 µM | > 100 µM | – | > 100 µM | > 100 µM | > 100 µM | > 100 µM | – | – | – | – | – | – | – | – | –
NC(CCC(=O)NC(CSCC1C(=O)Nc2ccccc21)C(=O)NCC(=O)O)C(=O)O (stereo unspecified) | 18.9 µM | 49 µM | 12.8 µM | 2.51 µM | 13 µM | 33.1 µM | > 22.2 µM | 25.4 µM | 38.6 µM | 8.55 µM | > 45.6 µM | – | – | – | – | – | – | – | – | –
Oc1cccc(-c2nc3cc(F)ccc3s2)c1 | 51.6 µM | 65 µM | 59 µM | 47.8 µM | 33.1 µM | 27.6 µM | 52.3 µM | 43.2 µM | – | 39 µM | 50.7 µM | – | – | – | – | – | – | – | – | –
COc1nc2nccnc2c(=O)n1C | > 10 µM | > 10 µM | > 10 µM | > 10 µM | > 10 µM | > 10 µM | > 10 µM | > 10 µM | > 10 µM | > 10 µM | > 10 µM | – | – | – | – | – | – | – | – | –
CSc1cnc2ccccc2c1SC1CN(Cc2ccccc2)c2ccccc2C1=O (stereo unspecified) | > 100 µM | > 100 µM | > 100 µM | > 100 µM | > 100 µM | > 100 µM | > 100 µM | > 100 µM | > 100 µM | > 100 µM | > 100 µM | – | – | – | – | – | – | – | – | –
CCN1CCC(O)(/C=C/c2ccc(C)cc2C)C(C(=O)/C=C/c2ccc(C)cc2C)C1 (stereo unspecified) | 4.32 µM | 9.17 µM | 5.08 µM | 7.94 µM | 8.98 µM | 22.7 µM | 7.99 µM | 11.1 µM | 8.54 µM | 3.32 µM | 4.94 µM | – | – | – | – | – | – | – | – | –
O=C1/C(=C/c2ccc(Cl)cc2)CSc2ccccc21 | 55.9 µM | 44.5 µM | > 100 µM | > 100 µM | 66.4 µM | > 100 µM | 71.4 µM | 41.8 µM | 63.9 µM | 39.3 µM | – | – | – | – | – | – | – | – | – | –
C=CCOc1ccc(C2(O)c3ccccc3C3=NCCCN32)cc1 (stereo unspecified) | > 100 µM | > 100 µM | > 100 µM | > 78.8 µM | > 100 µM | > 100 µM | > 100 µM | 47 µM | > 100 µM | > 78.6 µM | > 100 µM | – | – | – | – | – | – | – | – | –
N#CC1=C(N)N(c2ccccc2)C(c2ccccc2)C1(C#N)C#N (stereo unspecified) | 29.8 µM | 40.3 µM | 31.7 µM | 40.5 µM | 32 µM | 33.6 µM | 51.1 µM | 42.9 µM | 36.8 µM | 32.6 µM | 61.1 µM | – | – | – | – | – | – | – | – | –
COC(=O)C1=C(C)NC(C)=C(C(=O)OC)C1c1nc2sccn2c1[N+](=O)[O-] | > 100 µM | > 100 µM | > 100 µM | > 100 µM | – | > 100 µM | > 100 µM | > 100 µM | > 100 µM | > 100 µM | > 100 µM | – | – | – | – | – | – | – | – | –
Nc1nc(Cl)cc(NCC2(CO)CCCC2)n1 | > 100 µM | > 100 µM | > 100 µM | > 100 µM | > 100 µM | > 100 µM | > 100 µM | > 100 µM | > 100 µM | > 100 µM | > 100 µM | – | – | – | – | – | – | – | – | –
COc1ccc2c(c1)CCN1CCc3ccccc3CC21 (stereo unspecified) | > 100 µM | > 100 µM | > 100 µM | > 100 µM | > 100 µM | > 100 µM | > 100 µM | > 100 µM | > 100 µM | > 100 µM | 56.1 µM | – | – | – | – | – | – | – | – | –
COc1ccc(-c2nn(-c3ccc(NC(=O)Nc4cc(C(F)(F)F)cc(C(F)(F)F)c4)cc3)cc2-c2ccncc2)cc1Cl | 4.44 µM | > 100 µM | – | 6.56 µM | > 100 µM | 5.32 µM | 60.7 µM | 4.38 µM | 15.1 µM | – | > 100 µM | 1.81 µM | 1.73 µM | 2.54 µM | 3.45 µM | 1.31 µM | 2.82 µM | 1.93 µM | 3.68 µM | 2.52 µM
C=CC[C@]12C=C(OC)[C@@H](O)[C@](OC)(C(c3cc(OC)c4c(c3)OCO4)[C@H]1C)[C@H]2OC(C)=O (stereo partly specified) | > 100 µM | > 100 µM | > 100 µM | > 100 µM | > 100 µM | > 100 µM | > 100 µM | > 100 µM | > 100 µM | > 100 µM | > 100 µM | – | – | – | – | – | – | – | – | –
CC(C)(Cl)C(Br)CCC(=CCCl)CBr (mixture of isomers) | 3.5 µM | 7.22 µM | > 21.2 µM | 3.92 µM | 6.73 µM | 9.22 µM | 5.31 µM | 9.93 µM | 8.33 µM | 3.77 µM | 13 µM | – | – | – | – | – | – | – | – | –
Nc1ccc(S(=O)(=O)Nc2nccs2)cc1 | > 100 µM | > 100 µM | > 100 µM | > 100 µM | > 100 µM | > 100 µM | > 100 µM | > 100 µM | > 100 µM | > 100 µM | > 100 µM | – | – | – | – | – | – | – | – | –
O=C(O)/C=c1/c2ccccc2n2nc3ccccc3c12 | > 100 µM | > 100 µM | 69.6 µM | 49.2 µM | > 100 µM | 46 µM | 70.1 µM | > 100 µM | > 100 µM | > 100 µM | > 100 µM | – | – | – | – | – | – | – | – | –
NNC(=O)CSc1nc2ccccc2c(=O)n1N | 61.2 µM | > 100 µM | > 100 µM | > 100 µM | > 100 µM | > 100 µM | > 100 µM | 66.9 µM | – | 57.4 µM | > 100 µM | – | – | – | – | – | – | – | – | –
